Results reported in patent US20230136562A1, “SPIROUREA DERIVATIVES” (Idorsia Pharmaceuticals Ltd, priority 2020, published 2023).
Like-named read-outs stand apart in the source and are kept apart here.

Key:
[1] = test system: DBA/2J mice; assay: Audiogenic seizure-sensitive mouse model of generalized convulsive seizures (AGS); format: in vivo; conditions: challenge 1 h, 90% MC 0.5% + 10% PEG400, read-out: Seizure stage [% vs. vehicle]
Experimental: Formulation and Administration.
Compounds were formulated in a 10% polyethylene glycol 400 (PEG 400)/90% aqueous solution of 0.5% methylcellulose (MC 0.5%). Firstly drugs are dissolved in PEG 400 and then suspended in MC 0.5% for oral gavage at X mg/5 mL/kg (X see table).
Audiogenic Seizure-Sensitive Mouse Model of Generalized Convulsive Seizures
1. Procedure: Following two days of acclimatisation, auditory seizures are induced in male juvenile DBA/2J mice (22-24 days old). Each mouse is placed individually in the exposure chamber, an hemispheric acrylic glass dome (diameter: 50 cm) within a sound-attenuated box. The sound-attenuated box is equipped with two house lights and a camera system (Fire-I from Unibrain) in order to observe and record the behavioral seizure response. After 60 seconds of habituation, the stimulus, a mixed frequency tone of 15-20 kHz at 110 dB (SASLab Lite, Avisoft Bioacoustics), is played from a speaker that is placed on the top center of the dome. […] Seizures are classified as following: stage 0, normal behavior; stage 1, wild running; stage 2, generalized clonus; stage 3, tonic extension of the hind limbs.
2. Compounds testing: Acute compound effects on audiogenic generalized convulsive seizures are evaluated in independent groups of 8-10 mice randomly assigned. Following oral administration of compound or vehicle, the maximum seizure stage during sound exposure is assessed. Compounds are given 1 hour before exposure to the stimulus. Each mouse is exposed to the auditory stimulus only once and euthanized afterwards by CO2 inhalation.

[2] = test system: primary neuronal cultures from embryonic rat brains; assay: Rat oscillation assay (FLIPR, neuronal calcium oscillations); format: cell-based; conditions: Rattus norvegicus
Summary of the method: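 Cortical neurons from E18 Wistar rat embryos, cultured 8–10 days at high density, loaded with 1 μM Fluo-8 AM; calcium oscillations recorded by FLIPR once per second in Mg-free HBSS with 2 mM CaCl2, 20 mM HEPES, pH 7.4. Two acquisitions ("Acute", 500 sec, compound added at 250 sec; "20 min"), ± Kv7 blocker XE-991.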

[3] = 20 min, AUC of fluorescence measured 20 min after compound addition, read-out: FLIPR: IC50 [nM] 20 min
[4] = Acute phase, ratio of AUC fluorescence before and after compound addition, read-out: FLIPR: IC50 [nM] acute

| Structure (SMILES) | change in vivo at 10 mg/kg ([1]; 10 mg/kg po) [%] | IC50 [2, 3] [nM] | IC50 [2, 4] [nM] | change in vivo at 5 mg/kg ([1]; 5 mg/kg po) [%] | change in vivo at 30 mg/kg ([1]; 30 mg/kg po) [%] |
| --- | --- | --- | --- | --- | --- |
| O=C(NCc1cc(OCC(F)(F)F)ncn1)NC1CC2(CCC2)C1 [Example 59, 1-Spiro[3.3]hept-2-yl-3-[6-(2,2,2-trifluoro-ethoxy)-pyrimidin-4-ylmethyl]-urea] | -70 | 61 | 45 |  |  |
| O=C(NC1CC2(CC2)C1)N[C@@H](CO)c1cccc(C(F)(F)F)c1 (single isomer, unassigned) [Example 186] |  | 40 | 20 | -67 |  |
| O=C(NCc1cccc(C(F)(F)F)c1)NC1CC2(CC2)C1 [Example 2, 1-Spiro[2.3]hex-5-yl-3-(3-trifluoromethyl-benzyl)-urea] |  | 86 | 63 |  | -95 |
